The numbers were not newly measured in patent publication US7504230B2, “Method of identifying a useful set of signal transduction proteins from a multiplicity of potentially useful proteins” (Trelolis Bioscience, Inc., priority 1999, dated 2009), which cites them from elsewhere.

SMILES strings stand for the structures.

One data set addresses T1, PKC isoenzyme α (Homo sapiens, UniProt P17252).
T1 construct: endogenous in cells; host or cells: hDMEC (human dermal microvascular endothelial cells)
Conditions: hDMEC, after stimulation with PMA; from cytosol.

In another data set the target is T2, PKC isoenzyme β (Homo sapiens, UniProt P05771).
T2 construct: endogenous in cells; host or cells: hDMEC (human dermal microvascular endothelial cells)
T2 sequence (P05771 whole entry): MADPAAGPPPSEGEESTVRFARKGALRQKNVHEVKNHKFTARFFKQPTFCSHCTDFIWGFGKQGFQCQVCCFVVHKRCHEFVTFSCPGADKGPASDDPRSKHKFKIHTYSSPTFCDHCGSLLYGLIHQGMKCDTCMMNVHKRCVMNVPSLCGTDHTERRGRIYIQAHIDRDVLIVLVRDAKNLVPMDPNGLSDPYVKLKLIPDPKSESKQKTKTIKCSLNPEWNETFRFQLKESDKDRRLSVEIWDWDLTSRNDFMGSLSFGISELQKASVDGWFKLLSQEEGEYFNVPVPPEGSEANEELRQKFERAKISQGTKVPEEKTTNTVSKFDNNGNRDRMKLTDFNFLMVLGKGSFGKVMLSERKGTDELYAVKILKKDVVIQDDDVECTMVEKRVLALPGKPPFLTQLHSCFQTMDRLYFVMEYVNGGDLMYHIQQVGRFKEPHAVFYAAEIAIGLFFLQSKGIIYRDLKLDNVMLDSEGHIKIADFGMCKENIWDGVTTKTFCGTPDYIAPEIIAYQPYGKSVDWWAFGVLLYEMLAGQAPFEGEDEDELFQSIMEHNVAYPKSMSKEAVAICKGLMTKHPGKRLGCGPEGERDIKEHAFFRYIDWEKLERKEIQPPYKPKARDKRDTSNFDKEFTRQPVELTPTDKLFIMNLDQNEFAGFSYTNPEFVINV
Conditions: hDMEC, after stimulation with PMA; from cytosol (ditto mark).

A further data set deals with T3, PKC isoenzyme βII (Homo sapiens, UniProt P05771).
T3 construct: endogenous in cells; host or cells: hDMEC (human dermal microvascular endothelial cells)
T3 sequence (P05771 1-673 isoform P05771-2): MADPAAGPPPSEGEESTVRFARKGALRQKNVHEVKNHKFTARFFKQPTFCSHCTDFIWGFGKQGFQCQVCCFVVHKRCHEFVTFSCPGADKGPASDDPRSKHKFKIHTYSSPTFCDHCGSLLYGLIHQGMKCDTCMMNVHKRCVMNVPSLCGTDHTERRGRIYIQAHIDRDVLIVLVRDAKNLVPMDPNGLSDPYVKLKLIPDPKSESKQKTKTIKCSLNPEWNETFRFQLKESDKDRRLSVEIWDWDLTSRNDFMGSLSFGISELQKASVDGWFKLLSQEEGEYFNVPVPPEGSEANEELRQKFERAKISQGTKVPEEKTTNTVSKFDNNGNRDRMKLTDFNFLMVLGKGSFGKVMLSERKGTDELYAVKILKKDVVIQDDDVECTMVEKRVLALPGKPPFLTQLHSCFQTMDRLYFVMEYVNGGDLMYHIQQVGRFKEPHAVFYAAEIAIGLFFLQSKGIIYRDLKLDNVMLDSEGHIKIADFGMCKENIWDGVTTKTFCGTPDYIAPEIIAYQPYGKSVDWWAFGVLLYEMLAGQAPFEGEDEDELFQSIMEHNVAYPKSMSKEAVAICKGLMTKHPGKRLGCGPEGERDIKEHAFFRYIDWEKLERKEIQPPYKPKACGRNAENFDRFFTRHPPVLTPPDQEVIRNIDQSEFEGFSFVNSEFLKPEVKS
The conditions noted are these: hDMEC, after stimulation with PMA; from nucleus.

A further data set has as its target T4, PKC isoenzyme δ (Homo sapiens, UniProt Q05655).
T4 construct: endogenous in cells; host or cells: hDMEC (human dermal microvascular endothelial cells)
Conditions: hDMEC, after stimulation with PMA; from cytosol.

Another data set concerns the target T5, PKC isoenzyme ε (Homo sapiens, UniProt Q02156).
T5 construct: endogenous in cells; host or cells: hDMEC (human dermal microvascular endothelial cells)
T5 sequence (Q02156 1-737): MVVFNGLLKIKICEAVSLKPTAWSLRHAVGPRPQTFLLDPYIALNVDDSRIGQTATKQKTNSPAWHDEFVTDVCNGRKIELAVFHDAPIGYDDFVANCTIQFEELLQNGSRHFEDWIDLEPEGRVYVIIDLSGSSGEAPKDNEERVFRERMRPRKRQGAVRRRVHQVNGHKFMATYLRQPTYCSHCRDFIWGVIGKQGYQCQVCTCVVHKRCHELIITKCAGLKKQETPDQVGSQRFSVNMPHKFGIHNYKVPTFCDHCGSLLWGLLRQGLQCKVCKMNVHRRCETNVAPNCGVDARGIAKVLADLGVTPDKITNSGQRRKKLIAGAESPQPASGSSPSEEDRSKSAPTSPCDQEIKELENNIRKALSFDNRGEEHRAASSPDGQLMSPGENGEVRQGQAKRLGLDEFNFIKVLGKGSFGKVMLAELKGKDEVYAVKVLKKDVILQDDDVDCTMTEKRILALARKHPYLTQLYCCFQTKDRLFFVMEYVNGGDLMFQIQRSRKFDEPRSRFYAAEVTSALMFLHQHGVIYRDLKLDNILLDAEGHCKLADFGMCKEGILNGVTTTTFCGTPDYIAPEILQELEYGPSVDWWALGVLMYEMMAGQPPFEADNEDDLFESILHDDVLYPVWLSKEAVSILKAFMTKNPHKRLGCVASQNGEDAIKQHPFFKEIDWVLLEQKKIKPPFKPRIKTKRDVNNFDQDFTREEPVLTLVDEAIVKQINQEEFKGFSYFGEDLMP
Conditions: hDMEC, after stimulation with PMA; from periphery.

A further data set addresses T6, PKC isoenzyme ζ (Homo sapiens, UniProt Q05513).
T6 construct: endogenous in cells; host or cells: hDMEC (human dermal microvascular endothelial cells)
T6 sequence (Q05513 1-592): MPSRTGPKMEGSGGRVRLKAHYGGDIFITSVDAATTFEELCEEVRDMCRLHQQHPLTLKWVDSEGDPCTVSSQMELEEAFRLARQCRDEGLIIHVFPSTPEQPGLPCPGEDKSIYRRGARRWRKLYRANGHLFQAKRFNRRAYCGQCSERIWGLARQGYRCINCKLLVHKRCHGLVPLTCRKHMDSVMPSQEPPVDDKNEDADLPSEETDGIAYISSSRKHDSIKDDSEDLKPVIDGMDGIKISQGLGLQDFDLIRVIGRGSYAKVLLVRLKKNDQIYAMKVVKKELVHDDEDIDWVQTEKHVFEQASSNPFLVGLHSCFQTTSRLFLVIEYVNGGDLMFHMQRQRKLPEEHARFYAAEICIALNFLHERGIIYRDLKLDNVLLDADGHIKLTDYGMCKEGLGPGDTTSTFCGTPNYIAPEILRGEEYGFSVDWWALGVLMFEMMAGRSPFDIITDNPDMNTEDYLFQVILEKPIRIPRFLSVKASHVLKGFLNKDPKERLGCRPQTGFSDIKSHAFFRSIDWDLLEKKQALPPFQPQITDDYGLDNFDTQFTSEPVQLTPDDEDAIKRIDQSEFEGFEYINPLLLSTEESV
The conditions noted are these: hDMEC, after stimulation with PMA; from fibrillar structures.

The target of another data set is T7, PKC isoenzyme η (Homo sapiens, UniProt P24723).
T7 construct: endogenous in cells; host or cells: hDMEC (human dermal microvascular endothelial cells)
T7 sequence (P24723 whole entry): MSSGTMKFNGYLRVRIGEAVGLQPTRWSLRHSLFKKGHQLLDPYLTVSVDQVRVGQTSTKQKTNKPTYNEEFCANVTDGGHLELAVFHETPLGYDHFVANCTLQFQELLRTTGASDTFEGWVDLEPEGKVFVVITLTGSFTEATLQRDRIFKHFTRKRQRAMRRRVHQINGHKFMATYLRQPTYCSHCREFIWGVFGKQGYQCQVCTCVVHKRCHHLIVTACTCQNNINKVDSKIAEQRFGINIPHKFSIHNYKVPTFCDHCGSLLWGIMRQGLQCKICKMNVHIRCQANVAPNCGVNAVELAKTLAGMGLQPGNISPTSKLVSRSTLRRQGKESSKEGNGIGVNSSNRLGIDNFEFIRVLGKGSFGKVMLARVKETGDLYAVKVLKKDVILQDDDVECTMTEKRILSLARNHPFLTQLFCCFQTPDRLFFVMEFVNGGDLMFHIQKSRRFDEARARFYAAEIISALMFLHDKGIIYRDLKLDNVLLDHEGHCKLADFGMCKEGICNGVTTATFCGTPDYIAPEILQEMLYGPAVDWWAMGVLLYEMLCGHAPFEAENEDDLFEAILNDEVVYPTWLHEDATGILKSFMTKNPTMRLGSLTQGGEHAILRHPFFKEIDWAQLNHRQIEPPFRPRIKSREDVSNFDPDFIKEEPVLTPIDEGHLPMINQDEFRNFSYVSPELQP
Conditions: hDMEC, after stimulation with PMA; from nucleus.

Data set [1] relates to fusion of the C1 region with green fluorescent protein (GFP). The conditions noted are these: from a diffuse cytoplasmic localization.

T4 sequence (Q05655 whole entry): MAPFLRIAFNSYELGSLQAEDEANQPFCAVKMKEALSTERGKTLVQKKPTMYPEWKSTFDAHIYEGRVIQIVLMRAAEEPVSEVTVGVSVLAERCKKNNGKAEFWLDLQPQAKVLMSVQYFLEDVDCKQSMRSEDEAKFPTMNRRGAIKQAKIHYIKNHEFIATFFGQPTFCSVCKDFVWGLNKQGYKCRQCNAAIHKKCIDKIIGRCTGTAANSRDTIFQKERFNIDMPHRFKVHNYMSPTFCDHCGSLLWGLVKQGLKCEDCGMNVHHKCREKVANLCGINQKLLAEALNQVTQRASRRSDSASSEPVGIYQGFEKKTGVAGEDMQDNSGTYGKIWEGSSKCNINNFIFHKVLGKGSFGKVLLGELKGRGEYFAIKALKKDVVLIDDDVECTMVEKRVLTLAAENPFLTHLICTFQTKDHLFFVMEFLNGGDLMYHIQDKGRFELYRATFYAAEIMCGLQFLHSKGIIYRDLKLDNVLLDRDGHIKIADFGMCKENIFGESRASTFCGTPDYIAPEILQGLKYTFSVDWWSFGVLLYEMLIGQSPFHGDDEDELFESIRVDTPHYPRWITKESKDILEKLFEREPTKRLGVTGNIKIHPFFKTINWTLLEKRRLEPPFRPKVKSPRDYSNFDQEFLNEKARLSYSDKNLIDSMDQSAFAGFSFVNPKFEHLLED

Take `CCCCCCCCCCCCCC(=O)O[C@@H]1[C@@H](C)[C@@]2(O)[C@@H](C=C(CO)C[C@]3(O)C(=O)C(C)=C[C@@H]23)[C@@H]2C(C)(C)[C@]12OC(C)=O` [PMA, phorbol myristic acetate]: the “Localization after stimulation (To)” value on PKC isoenzyme α was “perinuclear membrane”; on PKC isoenzyme β it was “nucleus”; at PKC isoenzyme βII it was “filamentous structures”; at PKC isoenzyme δ it was “cytoskeletal elements”; at PKC isoenzyme ε it was “perinucleus”; at PKC isoenzyme ζ it was “no change”. Also, the “Localization after stimulation (To)” value at PKC isoenzyme η is “no change”. Moreover, in data set [1], the “Localization of C1-GFP fusion protein in response to PMA” value is “membrane bound”.
